Drawing on the SangsterLogP compilation, this text covers logP and logD for 12 compounds.

A short description of one series: method code SF-AS, from DOI: 10.1081/jlc-120027619.
Settings: not given
In turn, `Cc1cccc2c3c(ccc12)C1=C(C(=O)C3=O)[C@@H](C)CO1` had a logP of 3.14.

A further series in a line: method code RP-HPLC, from DOI: 10.1081/jlc-120027619. As to conditions: pH 3.1.
Compound `O=C(O)c1cc(O)c2c(c1)C(=O)c1cccc(O)c1C2=O` showed a logD of 3.68.

`Cc1coc2c1C(=O)C(=O)c1c-2ccc2c(C)cccc12` yielded a logD of 4.65.

`O=C(O)C(O)Cc1ccc(O)c(O)c1` (configuration not stated) gave a logD of 0.11.

As for `Cc1cc(O)c2c(c1)C(=O)c1cccc(O)c1C2=O`, the logD is 4.39.

With `Cc1coc2c1C(=O)C(=O)c1c-2ccc2c1CCCC2(C)C`, the logD was 5.4.

For the compound `O=Cc1ccc(O)c(O)c1`, the logD amounted to 0.82.

`COc1cc(O)c2c(c1)C(=O)c1cc(C)cc(O)c1C2=O` showed a logD of 4.93.

In turn, `Cc1cc(O)c2c(c1)C(=O)c1cc(O)cc(O)c1C2=O` had a logD of 4.48.

Compound `C[C@H]1COC2=C1C(=O)C(=O)c1c2ccc2c1CCCC2(C)C` gave a pH-dependent lipophilicity (logD) of 4.72.

For `O=c1c(-c2ccc(O)cc2)coc2c([C@@H]3O[C@H](CO)[C@@H](O)[C@H](O)[C@H]3O)c(O)ccc12`, the logD came to 1.34.

On to `O=C1c2cccc(O)c2C(=O)c2c(O)cc(CO)cc21`, for which the logD turned out to be 3.18.
